Source: PMC2716445 (Journal of Biological Inorganic Chemistry, 2009)
“Also recorded” adds a separate entry of the source. Read-outs that look alike come from different tables or passages of the source.

Key:
[1] = cited from earlier work
[2] = cited from earlier work; remark: listed apart in the source
[3] = test system: capillary endothelial cells; settings: endothelial cell culture model; cited from earlier work
[4] = In vivo oral availability, plasma levels after intragastric gavage; design: species or system Sprague–Dawley rats; settings: rat, mean ± SD; for Plasma concentration 30 min: dose per compound 0.23-2.7 mg kg^−1
Octanol partitioning = type: physicochemical; settings: octanol/aqueous; ± SD of triplicates
[5] = Catalase activity, disappearance of hydrogen peroxide; settings: initial hydrogen peroxide 100 μM; ± SD of triplicates
[6] = test system: capillary endothelial cells; settings: cited from earlier work
[7] = In vitro stability in simulated gastric fluid; type: in vitro ADME; settings: intact compound after 90 min at 37 °C, pH approximately 1.2, HPLC
PC12 cells [8] = test: Inhibition of STS-induced cell death in PC12 cells; type: cell-based, rat; settings: STS 5 μM, 18–24 h, XTT viability
serum albumin = serum albumin (Homo sapiens, UniProt P02768); test: In vitro binding to serum albumin; settings: data not shown
[9] = SOD activity, xanthine/xanthine oxidase with NBT detection; type: biochemical; settings: read-out: SOD IC50, 10 μM NBT, pH 7.8, 25 °C
[10] = Peroxidase activity with tetramethyl benzidine as substrate; settings: 5 μM sample, 0.2 mM hydrogen peroxide, 0.225 mM TMB, 27 °C; ± SD of triplicates
PC12 cells [11] = test: Cytotoxicity in PC12 cells; type: cell-based, rat; settings: data not shown
[12] = EUK-425 plasma levels after PO versus IV administration; type: in vivo, Sprague–Dawley rats; settings: rats, 5 mg kg^−1 PO, 1 mg kg^−1 IV
[13] = test system: capillary endothelial cells; test: Mitigation of ionizing radiation-induced apoptosis in endothelial cell culture; type: cell-based; settings: endothelial cell culture model; unpublished data
[14] = test system: capillary endothelial cells; test: Cytotoxicity in endothelial cell culture model; type: cell-based; settings: unpublished data

Chain of serum albumin (P02768 25-609 limits assumed): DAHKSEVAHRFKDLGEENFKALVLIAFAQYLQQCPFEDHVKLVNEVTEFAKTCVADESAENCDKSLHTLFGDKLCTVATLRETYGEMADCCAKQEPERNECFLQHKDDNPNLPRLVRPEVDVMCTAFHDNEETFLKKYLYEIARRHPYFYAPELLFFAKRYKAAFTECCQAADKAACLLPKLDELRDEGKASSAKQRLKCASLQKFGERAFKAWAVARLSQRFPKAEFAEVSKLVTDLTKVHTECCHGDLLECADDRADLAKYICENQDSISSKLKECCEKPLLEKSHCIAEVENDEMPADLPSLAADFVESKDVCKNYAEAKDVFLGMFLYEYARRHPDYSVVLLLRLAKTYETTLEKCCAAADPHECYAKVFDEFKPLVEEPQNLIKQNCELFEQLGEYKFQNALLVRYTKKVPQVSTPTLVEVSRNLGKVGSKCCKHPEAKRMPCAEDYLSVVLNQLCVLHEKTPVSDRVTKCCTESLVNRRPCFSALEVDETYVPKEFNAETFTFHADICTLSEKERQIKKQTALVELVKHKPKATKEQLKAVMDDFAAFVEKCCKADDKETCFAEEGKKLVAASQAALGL

COC(=O)c1c2nc(c(C(F)(F)F)c3ccc([n-]3)c(C(=O)OC)c3nc(c(C(F)(F)F)c4ccc1[n-]4)C=C3)C=C2.[Cl-].[Mn+3] [AEOL11207, 5,15-bis(methoxycarbonyl)-10,20-bistrifluoromethylporphyrinato manganese(III) chloride, reference compound]
Presence in brain tissue ([1]; mice, after subcutaneous or oral administration): present in the brain tissue | SOD activity, fold less active than Cu/Zn SOD ([2]; normalized to Cu/Zn SOD, assay methods differed): 123 fold

C1=Cc2nc1cc1ccc([n-]1)c(C1CC1)c1nc(cc3ccc([n-]3)c2C2CC2)C=C1.CC(=O)[O-].[Mn+3] [EUK-418, manganese(III) 5,15-dicyclopropylporphine acetate]
Mitigation of apoptosis induced by ionizing radiation [3]: mitigated apoptosis induced by ionizing radiation | Oral bioavailability in mice [1]: orally bioavailable in mice | Tissue distribution after oral administration ([1]; mice, selected tissues): kidney > liver > lung ≫ brain | Plasma concentration 30 min [4]: 0.128 ± 0.083 µg/mL | Plasma concentration 60 min [4]: 0.25 ± 0.147 µg/mL | Plasma concentration 120 min [4]: 0.245 ± 0.145 µg/mL | Plasma concentration 240 min [4]: 0.299 ± 0.224 µg/mL | Plasma concentration 360 min [4]: 0.259 ± 0.166 µg/mL | Log10 P (Octanol partitioning): 0.548 ± 0.009 | P (octanol partitioning coefficient) (Octanol partitioning): 3.53 ± 0.14 | CAT [5]: 0.47 ± 0.10 μM H2O2 min^−1 | Cytotoxicity in endothelial cell culture model [6]: greatest cytotoxicity | SGF stability [7]: 92% | Protection of PC12 cells against STS-induced cell death (PC12 cells [8]): protect PC12 cells against STS-induced cell death; also recorded: relatively poor protector | Binding to serum albumin (serum albumin): bind to serum albumin | IC50 [9]: 1.73 µM | POD [10]: 0.63 ± 0.08 μM TMB min^−1

C1=Cc2nc1cc1ccc([n-]1)c(-c1ccccc1)c1nc(cc3ccc([n-]3)c2-c2ccccc2)C=C1.CC(=O)[O-].[Mn+3] [EUK-423, manganese(III) 5,15-diphenylporphine acetate]
Mitigation of apoptosis induced by ionizing radiation [3]: mitigated apoptosis induced by ionizing radiation | Plasma concentration 30 min [4]: 0.025 ± 0.007 µg/mL | Plasma concentration 60 min [4]: 0.053 ± 0.019 µg/mL | Plasma concentration 120 min [4]: 0.048 ± 0.023 µg/mL | Plasma concentration 240 min [4]: 0.11 ± 0.061 µg/mL | Plasma concentration 360 min [4]: 0.118 ± 0.017 µg/mL | Log10 P (Octanol partitioning): 0.907 ± 0.002 | P (octanol partitioning coefficient) (Octanol partitioning): 8.07 ± 0.10 | CAT [5]: 0.45 ± 0.18 μM H2O2 min^−1 | Cytotoxicity in endothelial cell culture model [6]: intermediate toxicity | SGF stability [7]: 91% | Protection of PC12 cells against STS-induced cell death (PC12 cells [8]): protect PC12 cells against STS-induced cell death; also recorded: most protective | Binding to serum albumin (serum albumin): bind to serum albumin | POD [10]: 0.61 ± 0.05 μM TMB min^−1

O=C(O)c1ccc(-c2c3nc(c(-c4ccc(C(=O)O)cc4)c4ccc([n-]4)c(-c4ccc(C(=O)O)cc4)c4nc(c(-c5ccc(C(=O)O)cc5)c5ccc2[n-]5)C=C4)C=C3)cc1.[Mn+3] [MnTBAP, manganese(III) tetrakis(4-benzoic acid) porphyrin]
SOD activity ([2]; earlier reported activity due to Mn aggregate impurities): no SOD activity

manganese(III) 5,10,15,20-tetraethylporphine acetate [EUK-425]
Plasma concentration 30 min [4]: 0.052 ± 0.019 µg/mL | Plasma concentration 60 min [4]: 0.048 ± 0.021 µg/mL | Plasma concentration 120 min [4]: 0.078 ± 0.047 µg/mL | Plasma concentration 240 min [4]: 0.096 ± 0.02 µg/mL | Cytotoxicity in PC12 cells (PC12 cells [11]): cytotoxic; also recorded: most cytotoxic | Log10 P (Octanol partitioning): 0.932 ± 0.006 | P (octanol partitioning coefficient) (Octanol partitioning): 8.56 ± 0.35 | CAT [5]: 0.57 ± 0.15 μM H2O2 min^−1 | SGF stability [7]: 97% | Protection of PC12 cells against STS-induced cell death (PC12 cells [8]): not significantly protective; also recorded: no cytoprotective activity | Binding to serum albumin (serum albumin): bind to serum albumin | IC50 [9]: 12.5 µM | Detection in plasma by LC-MS/MS after oral gavage and intravenous injection [12]: detected in plasma | POD [10]: 0.58 ± 0.03 μM TMB min^−1

manganese(III) 5,15-di-3,4-dimethoxyphenylporphine acetate [EUK-450]
Plasma concentration 30 min [4]: 0.011 ± 0.01 µg/mL | Plasma concentration 60 min [4]: 0.015 ± 0.009 µg/mL | Plasma concentration 120 min [4]: 0.048 ± 0.046 µg/mL | Plasma concentration 240 min [4]: 0.053 ± 0.053 µg/mL | Plasma concentration 360 min [4]: 0.047 ± 0.038 µg/mL | Cytotoxicity in PC12 cells (PC12 cells [11]): cytotoxic; also recorded: most cytotoxic | Log10 P (Octanol partitioning): 0.650 ± 0.010 | P (octanol partitioning coefficient) (Octanol partitioning): 4.46 ± 0.11 | CAT [5]: 0.58 ± 0.08 μM H2O2 min^−1 | SGF stability [7]: 98% | Protection of PC12 cells against STS-induced cell death (PC12 cells [8]): not significantly protective; also recorded: no cytoprotective activity | IC50 [9]: 6.39 µM | POD [10]: 0.66 ± 0.10 μM TMB min^−1

manganese(III) 5,15-dicyclohexylporphine chloride [EUK-452]
Plasma concentration 30 min [4]: 0.057 ± 0.05 µg/mL | Plasma concentration 60 min [4]: 0.052 ± 0.042 µg/mL | Plasma concentration 120 min [4]: 0.075 ± 0.063 µg/mL | Plasma concentration 240 min [4]: 0.075 ± 0.076 µg/mL | Plasma concentration 360 min [4]: 0.071 ± 0.063 µg/mL | Cytotoxicity in PC12 cells (PC12 cells [11]): cytotoxic; also recorded: most cytotoxic | Log10 P (Octanol partitioning): 1.973 ± 0.008 | P (octanol partitioning coefficient) (Octanol partitioning): 94.0 ± 1.7 | CAT [5]: 0.54 ± 0.06 μM H2O2 min^−1 | SGF stability [7]: 98% | Protection of PC12 cells against STS-induced cell death (PC12 cells [8]): not significantly protective; also recorded: no cytoprotective activity | IC50 [9]: 11.6 µM | POD [10]: 0.63 ± 0.05 μM TMB min^−1

manganese(III) 5,15-dipropylporphine chloride [EUK-453]
Plasma concentration 30 min [4]: 0.0088 ± 0.0059 µg/mL | Plasma concentration 60 min [4]: 0.0081 ± 0.0055 µg/mL | Plasma concentration 120 min [4]: 0.0077 ± 0.0061 µg/mL | Plasma concentration 240 min [4]: 0.0077 ± 0.006 µg/mL | Plasma concentration 360 min [4]: 0.0046 ± 0.0042 µg/mL | Cytotoxicity in PC12 cells (PC12 cells [11]): cytotoxic; also recorded: most cytotoxic | Log10 P (Octanol partitioning): 0.619 ± 0.017 | P (octanol partitioning coefficient) (Octanol partitioning): 4.16 ± 0.16 | CAT [5]: 0.50 ± 0.11 μM H2O2 min^−1 | SGF stability [7]: 98% | Protection of PC12 cells against STS-induced cell death (PC12 cells [8]): not significantly protective; also recorded: no cytoprotective activity | IC50 [9]: 5.95 µM | POD [10]: 0.56 ± 0.03 μM TMB min^−1

manganese(III) 5,15-ditetrahydropyranyoporphine chloride [EUK-451]
Plasma concentration 30 min [4]: 0.044 ± 0.038 µg/mL | Plasma concentration 60 min [4]: 0.061 ± 0.054 µg/mL | Plasma concentration 120 min [4]: 0.066 ± 0.062 µg/mL | Plasma concentration 240 min [4]: 0.107 ± 0.102 µg/mL | Plasma concentration 360 min [4]: 0.086 ± 0.07 µg/mL | Mitigation of apoptosis induced by ionizing radiation [13]: potent mitigator | Log10 P (Octanol partitioning): −0.660 ± 0.011 | P (octanol partitioning coefficient) (Octanol partitioning): 0.22 ± 0.01 | CAT [5]: 0.64 ± 0.25 μM H2O2 min^−1 | Cytotoxicity in endothelial cell culture model [14]: significantly lower cytotoxicity than the other EUK-400 compounds | SGF stability [7]: 100% | Protection of PC12 cells against STS-induced cell death (PC12 cells [8]): protect PC12 cells against STS-induced cell death; also recorded: most protective | IC50 [9]: 3.36 µM | POD [10]: 0.59 ± 0.023 μM TMB min^−1
